The values below come from US20100041632A1, “USES OF THE CARBOXY-AMIDO-TRIAZOLE COMPOUNDS AND SALTS THEREOF” (priority 2006, published 2010).

For one data set, the system named is TNF-α. Put plainly: TNF-α levels in paw tissue and serum of adjuvant arthritis rat (ELISA). It is filed as in vivo. The note with it: administered in combination with CAI. The protocol: (§1) Blood was collected from eve socket on day 29 and left in room temperature to allow coagulating. Then serum was separated by centrifugation at 3000 rpm for 10 min and kept in −20° C. After animals were sacrificed, the subcutaneous tissue of the right hind paw and that surrounding the tarsotibial joints was removed, broke into pieces, and placed in 5 ml normal saline (0.9%). The tissues were homogenized in a high speed homogenizer. Then the homogenate was centrifuged at 4° C. and 10,000 rpm for 15 min. The supernatants were collected and stored at −20° C. until further analysis.
(§2) IL-1β and TNF-α levels in paw tissue and serum were measured using specific rat ELISA kits according to the manufacturer's instructions.
Background: ELISA stands for enzyme-linked immunosorbent assay.

For another data set, the system named is IL-1β. Briefly: IL-1β levels in paw tissue and serum of adjuvant arthritis rat (ELISA). It is filed as in vivo. The note with it: administered in combination with CAI. The protocol: as §1, with “The adjuvant arthritis rat was prepared as described in example 8. Treatment was performed as described in example 8. Blood” for “Blood”
as §2

Another data set has as its system Wistar rats. Put plainly: Adjuvant induced arthritis (AA) of rat, paw oedema. It is filed as in vivo. The protocol:
Negative control (AA+NS): […] positive control (AA+Dex): dexamethasone, i.p., 0.067 mg/kg/day. Vehicle control (AA+PEG400): […] CAI (AA+CAI): 20 mg/ml CAI, ig, 0.1 ml/100 g/day (20 mg/kg/day). Combination (AA+CAI+Dex): dexamethasone, 0.067 mg/kg/day (i.p.) plus CAI 20 mg/kg/day (p.o.). Normal volumes of left and right hind paw were measured before adjuvant injection. […]

Data set [1] has as its system Kunming mice. Put plainly: Croton oil-induced ear edema mouse model. It is filed as in vivo. The note with it: ear weight difference 4 hours after 2% croton oil; CAI/analogs 2 mg/ml ig, dexamethasone 0.2 mg/ml ip, 0.1 ml/10 g/day, 3 days. The protocol: Male Kunming mice, weighted 18-22 g, were randomly divided to the following experiment groups, 20 mice/group:
Negative control: normal saline was injected (ig), 0.1 ml/10 g/day for 3 consecutive days.
Vehicle control: PEG400 was injected (ig), […] for 3 consecutive days.
Positive control: Dexamethasone (0.2 mg/ml) was injected (ip), 0.1 ml/10 g/day for 3 consecutive days.
Test group: CAI or its analogs (2 mg/ml, analogs are as described in example 5) was administered (ig), 0.1 ml/10 g/day for 3 consecutive days.
8 hours after the last administration, 20 μl of croton oil solution (2%) was applied to the right ear of each mouse. The left ear remained untreated as control. The animals were sacrificed 4 hours later, and a piece of tissue was punched from the same position of the treated and untreated ear. The tissues were weighed on a 0.1 mg balance. The difference in weight between the two pieces of tissue of each mouse was taken as a measure of swelling intensity.

The next data set deals with rats. Put plainly: Granulomatous tissue formation (implanted tampon). It is filed as in vivo. The note with it: 7 days; CAI 20 mg/kg/day p.o.; dexamethasone 0.067 mg/kg/day i.p. As to the method:
44 rats (160 g) were randomly divided into 4 groups (11 rats/group). Animals were slightly anaesthetized by ether. After sterilization, the groin was cut bilaterally. A sterile tampon (50 mg) was implanted (sc). On the same day, the following treatments were administered: N.S. (i.p., control group), 0.067 mg/kg/day dexamethasone (i.p., positive control), 20 mg/kg/day CAI (p.o., dissolved in PEG 400, test group) and 0.067 mg/kg/day dexamethasone+20 mg/kg/day CAI (p.o., dissolved in PEG 400, combination group). After 7 days administration, the animals were sacrificed. The cotton was removed. The granulomatous tissue was dried at 60° C. oven for 12 hr and weighed. Increment in the dry weight of the tissue was taken as measure of granuloma formation. The Increment was adjusted for respective body weight, and the mean value for each group was calculated.

Data set [2] relates to Kunming mice. Briefly: Hot plate test (analgesic effect). It is filed as in vivo. The protocol: Kunming mice (18-22 g, female) were randomly divided into 4 groups with 20 animals per group.
(§3) Control group with dissolvent: 10 μl PEG400 was administered (ig) twice with the interval of 24 hours. The pain intensity test was carried out 8 hours after the second administration. 200 μl N.S. was injected (sc) 5 minutes before the test.
(§4) Morphine/PEG400 group: 10 μl PEG400 was administered (ig) twice with the interval of 24 hours. The pain intensity test was carried out 8 hours after the second administration. Morphine (2 mg/kg body weight) was injected (sc) 5 minutes before the test.
(§5) CAI/N.S. group: CAI (20 mg/kg body weight, 2 mg/ml) was administered (ig) twice with the interval of 24 hours. The pain intensity test was carried out 8 hours after the second administration. 200 μl N.S. was injected (sc) 5 minutes before the test.
(§6) The pain intensity test was carried out 8 hours after the second administration. Morphine (2 mg/kg body weight) was injected (sc) 5 minutes before the test.
The mice were placed onto a hot plate (53±0.5° C.) and the latency periods (second) of hopping responses were recorded as the pain threshold index.
A general note: Hot-plate and tail-flick tests time the reaction to a heat stimulus.

Data set [3] has as its system Kunming mice. Briefly: Formalin test (analgesic effect). It is filed as in vivo. The protocol:
320 Kunming mice (18-22 g, half male and half female) were divided into 4 groups randomly with 80 animals in each group.
Control group with dissolvent (PEG400/N.S.): 10 μl PEG400 was administered (ig) twice with the interval of 24 hours. The pain intensity test was carried out 8 hours after the second administration. 200 μl N.S. is injected (sc) 5 minutes before the test.
as §4, §5, §6
5 minutes after the morphine or N.S. injection, 20 μl 2% formalin was injected (sc) into the subplantar space of the hind paw. The animals were placed immediately in a glass cylinder hanging on a holder, with a mirror placed below with 30° slope to observe the paw responses. The pain responses of the animals with injected paws were recorded; a pain ranking was recorded as follows: 3=the injected paw is licked, bitten, or shaken; 2=the injected paw is elevated and is not in contact with any other surface; 1=the injected paw has little or no weight on it; 0=the injected paw is not favored. The duration of each of the 4 behavioral categories was recorded. The observation lasted for 15 minutes. A pain intensity score was calculated by multiplying the amount of time spent in each category by its assigned category score and adding these products together.

The subject of data set [4] is Kunming mice. Put plainly: Effect of CAI on drug addiction caused by morphine (naloxone-induced jumping). As to the method:
160 Kunming mice (18-22 g, half male and half female) were divided into 4 groups randomly, with 40 mice per group:
Control group with solvent, PEG400/N.S. (10 μl/g/day PEG400, (ig), 4 days);
Group treated with CAI, CAI/N.S. (CAI is resolved in PEG400 to reach a final concentration of […], 20 mg CAI/kg/day was administered (ig) for 4 days, N.S. was taken according to morphine administration in table 1);
Group treated with morphine, PEG400/morphine (10 μl/g/day PEG400 was administered (ig) for 4 days, morphine was administered according to the table below);
4 hours after the morphine administration on the fifth day, animals of each group was injected (ip) with 1 mg/kg naloxone and then put into a tank (5000 ml) immediately. The jump frequency in 30 minutes was recorded. Two-factor analysis of variance by SPSS was performed to analyse the experiment results.

Data set [5] has as its system Kunming mice. Put plainly: Radiant heat test (tail-flick). It is filed as in vivo. As to the method:
The radiant heat dolorimeter (Collumbus Instruments) is used in this model with the tail-flick mode and the exposure rate of 20. The latency periods (TFL) starting from the beginning of exposure to the tail-flick responses were recorded as the pain threshold. The exposure time lasted for 16 seconds.
Kunming mice (18-22 g, male) are tested for the basic pain threshold before the test with drug administration, and those with pain threshold longer than 16 seconds are excluded. The selected mice are divided into 4 groups with 15 animals per group.
as §3, §4, §5
The pain intensity test was carried out 8 hours after the second administration, morphine (2 mg/kg body weight) was injected (sc) 5 minutes before the test.
The pain threshold of each mouse was tested before and after morphine or N.S. injection. The values after drug administration minus those before drug administration were considered to be the changing index of pain threshold.

Take `CC(=O)O.NC(=O)c1nnn(Cc2cc(Cl)c(C(=O)c3ccc(Cl)cc3)c(Cl)c2)c1N` [CAI acetate]: the “Inhibitory effect on serum levels of TNF-α (in words)” value in the data set on TNF-α was “obvious and even more pronounced”. The “Inhibitory effect on serum levels of IL-1β (in words)” value in the data set on IL-1β is “obvious and even more pronounced”.
`Cl.NC(=O)c1nnn(Cc2cc(Cl)c(C(=O)c3ccc(Cl)cc3)c(Cl)c2)c1N` [CAI hydrochlorate]: the “Inhibitory effect on serum levels of TNF-α (in words)” value with TNF-α is “obvious and even more pronounced”. For the same compound, in the data set on IL-1β, the “Inhibitory effect on serum levels of IL-1β (in words)” value was “obvious and even more pronounced”.
Turning to `C[C@@H]1C[C@H]2[C@@H]3CCC4=CC(=O)C=C[C@]4(C)[C@@]3(F)[C@@H](O)C[C@]2(C)[C@@]1(O)C(=O)CO` [dexamethasone, reference compound], the “Primary paw oedema (%), mean ± std” value in the data set on Wistar rats (1 d, CAI 20 mg/kg/day ig, Dex 0.067 mg/kg/day i.p.) came out at 111.3 ± 13.6 %; with Wistar rats (2 d), 121.9 ± 16.0 %; with Wistar rats (5 d) it was 107.4 ± 12.5 %; in the data set on Wistar rats (8 d) it was 103.6 ± 14.0 %; in the data set on Wistar rats (11 d), 100.3 ± 21.0 %; in the data set with Wistar rats (14 d), 100.0 ± 11.3 %. Also, the “Primary paw oedema (%), mean ± std” value was 95.3 ± 15.7 % with Wistar rats (17 d); 83.9 ± 24.0 % in the data set with Wistar rats (20 d); 80.4 ± 17.8 % in the data set on Wistar rats (23 d); 78.6 ± 23.1 % with Wistar rats (26 d); 73.9 ± 18.0 % with Wistar rats (29 d). The “Secondary paw oedema (%), mean ± std” value in the data set with Wistar rats (14 d, right hind paw) was 1.1 ± 1.0 %; with Wistar rats (17 d) it was 1.9 ± 1.4 %; in the data set with Wistar rats (20 d), 2.8 ± 0.9 %; in the data set on Wistar rats (23 d), 4.6 ± 1.4 %; with Wistar rats (26 d), 3.6 ± 1.7 %; with Wistar rats (29 d), 2.5 ± 1.7 %. Further, the “Swelling intensity (mg) mean ± std” value with Kunming mice [1] was found to be 1.5 ± 0.4 mg. The “granulomatous tissue:bady weight ratio (mean ± std)” value with rats is recorded as 0.064 ± 0.00495.
Take `CN1CC[C@]23c4c5ccc(O)c4O[C@H]2[C@@H](O)C=C[C@H]3[C@H]1C5` [morphine, reference compound]: the “Pain threshold (sec, mean ± std)” value in the data set on Kunming mice [2] (hot plate 53±0.5° C., latency of hopping response, CAI 20 mg/kg ig twice, morphine 2 mg/kg sc) amounted to 31.9 ± 12.1 s. In addition, in the data set with Kunming mice [2] (two-factor ANOVA), the “Analgesic effect in hot plate test (in words)” value was “extends the pain response time very significantly”. The “Pain intensity score (mean ± std)” value in the data set with Kunming mice [3] (2% formalin sc hind paw, 15 minutes observation, CAI 20 mg/kg ig twice, morphine 2 mg/kg sc) was determined as 756 ± 441. Also, the “Analgesic effect in formalin test (in words)” value in the data set with Kunming mice [3] (pain scores compared with the control group) is listed as “decrease significantly”. The “Mean number of jump” value in the data set with Kunming mice [4] (jump frequency in 30 minutes after naloxone 1 mg/kg ip, CAI 20 mg/kg/day ig 4 days, morphine per Table 1, mean ± std) is 41 ± 58. Moreover, the “Addiction / withdrawal syndrome (in words)” value in the data set on Kunming mice [4] (naloxone-induced jumping, two-factor ANOVA vs PEG400/N.S.) is reported as “causes obvious withdrawal syndrome”. Besides, the “Analgesic effect in radiant heat test (in words)” value in the data set on Kunming mice [5] (compared with the control group) was “extended the pain threshold time very significantly”. Moreover, in the data set with Kunming mice [5] (tail-flick latency after minus before drug, CAI 20 mg/kg ig twice, morphine 2 mg/kg sc), the “Pain threshold change (seconds, mean ± std)” value was determined as 6.95 ± 5.69 s.
